# Columns and labels:
# ARK = assay: MTS cell growth assay; type: cell-based; settings: Homo sapiens, 24 hours treatment, read-out: IC50 (concentration at 50% inhibition), cell growth
# Method: (§1) MM cell lines ARP1, ARK, MM.1S, MM.1R and U266 were maintained in RPMI-1640 medium supplemented with 10% fetal bovine serum, 100 U/ml penicillin and 100 μg/ml streptomycin at 37° C. and 5% CO2 Primary MM cells and MM BMSCs were isolated from bone marrow aspirates of myeloma patients. PBMCs were obtained from healthy volunteers. The study was approved by the Institutional Review Board at The University of Texas M.D. Anderson Cancer Center. Anti-caspase-3, caspase-9, PARP, Bim, XIAP, cyclin D1, pp 70S6K (Thr389) and p27(Kip1) antibodies were purchased from Cell Signaling. Anti-bcl-2, Bc1-XL, Akt, pAkt (Thr 308), pAkt (Ser 473), p70S6K and β-actin antibodies were purchased from Santa Cruz. Compound A was dissolved in DMSO at 10 mM as stock solution. Dexamethasone and Propidium iodide (PI) were purchased from Sigma-Aldrich. Recombinant human IL6 was purchased from R&D Systems. FITC conjugated Annexin V was obtained from Invitrogen.
# (§2) All experiments were performed in triplicate.
# ARP1 = assay: MTS cell growth assay; type: cell-based; settings: Homo sapiens, ARP-1, ARP1, 24 hours treatment, read-out: IC50 (concentration at 50% inhibition), cell growth
# Method: as §1, §2
# MM.1R = assay: MTS cell growth assay; type: cell-based; settings: Homo sapiens, 24 hours treatment, read-out: IC50 (concentration at 50% inhibition), cell growth
# Method: as §1, §2
# MM.1S = assay: MTS cell growth assay; type: cell-based; settings: Homo sapiens, MM1.S, 24 hours treatment, read-out: IC50 (concentration at 50% inhibition), cell growth
# Method: as §1, §2
# U266 = assay: MTS cell growth assay; type: cell-based; settings: Homo sapiens, U-266, U266, 24 hours treatment, read-out: IC50 (concentration at 50% inhibition), cell growth
# Method: as §1, §2
# CD138+ primary MM cells = assay: Apoptosis of primary MM cells cocultured with BMSCs ex vivo; type: cell-based, human; settings: 10 μM, 24 hours, cocultured 1:1 with BMSCs
# Method: as §1
# Apoptotic cells were determined as Annexin V positive cells.
# To evaluate compound A function in primary MM cells, the study was extended to CD138+ primary MM cells freshly isolated from myeloma patients. […]
# (A). […] Compound A induced MM cell apoptosis were measured by Annexin V staining as described in Materials and Methods. […] Cell growths were assessed by MTS assay. […]
# [1] = test system: MM cell lines ARP1, MM.1S and MM.1R; assay: Apoptosis with or without IL-6 addition; type: cell-based, human; settings: 10 μM compound A, rhIL-6
# Method: IL-6 is an important survival cytokine for MM (Klein B, Zhang X G, Jourdan M, et al. Interleukin-6 is the central tumor growth factor in vitro and in vivo in multiple myeloma. Eur Cytokine Netw. 1990; 1 (4):193-201; Gado K, Domjan G, Hegyesi H, Falus A. Role of INTERLEUKIN-6 in the pathogenesis of multiple myeloma. Cell Biol Int. 2000; 24 (4):195-209). […] For this purpose, different MM cell lines ARP1, MM.1S and MM.1R were cultured with or without recombinant hIL-6 (final concentration […]) and treated with or without 10 μM compound A for 2 days. As a positive control, MM.1S cells were treated with 40 μg/ml of dexamethasone with or without hIL-6 addition for the same period of time.
# MM cell lines ARP1, MM.1S and MM.1R were cultured with 10 μM compound A for 3 days. rhIL-6 were added to final concentration of 5 ng/ml. As a positive control, MM.1S cells were treated with 40 μg/ml dexamethasone in the presence of 5 ng/ml of rhIL6 for the same time. Cells apoptosis rate was measured by annexin V staining. (B). Same MM cells were co-cultured with or without MM BMSC, and treated with 10 μM of compound A for 1 day. As a positive control, MM.1S cells were cocultured with or without BMSC and treated with 40 μg/ml dexamethasone for 1 day. CD138+ MM cells apoptosis rate was measured by Annexin V staining.
# [2] = test system: MM cells ARP1, MM.1S and MM.1R; assay: Low-dose single agents, apoptosis; type: cell-based, human; settings: 1 μM compound A alone, 1 day
# Method: Compound A-induced cell apoptosis was detected by Annexin V binding assay as previously described (Zheng Y, Cai Z, Wang S, et al. Macrophages are an abundant component of myeloma microenvironment and protect myeloma cells from chemotherapy drug-induced apoptosis. Blood. 2009; 114 (17):3625-3628). Briefly, MM cells were cultured in 24-well plates and treated with 0 to 1 mM final concentrations of compound A for 24 or 72 hours. The cells were washed twice with cold PBS and resuspended in Annexin V binding buffer (Invitrogen). MM cells were stained with FITC-conjugated Annexin V and propidium iodide (PI) for 15 min at room temperature. Apoptotic cells were determined as Annexin V positive cells.
# Next, the experiment was extended to other MM cell lines, and they were treated with low compound A (1 μM) and dexamethasone (40 μg/ml).
# ARP1 cells were treated with 10 μM compound A (BK), 15 nM melphalan (Me), 40 μg/ml dexamethasone (De), 100 μM lenalidomide (Le), 10 μM Bortizomib (BT), or their combinations for 1 day. The cell apoptosis were measured as described. […] Cell apoptosis was measured. […] Same MM cell lines were treated with compound A for 1 day and cell growth were measured by MTS. […] Cell apoptosis were measured by annexin V staining. […] Cells apoptosis rates were measured by annxin V staining. […]
compound,measurement,setting,value
"Nc1cc(C(F)(F)F)c(-c2cc(N3CCOCC3)nc(N3CCOCC3)n2)cn1 [compound A, 5-(2,6-di-morpholin-4-yl-pyrimidin-4-yl)-4-trifluoromethyl-pyridin-2-ylamine]",IC50,ARK,1 to 10 µM
same,IC50,ARP1,1 to 10 µM
same,IC50,MM.1R,1 to 10 µM
same,IC50,MM.1S,< 1 µM
same,IC50,U266,10 to 100 µM
same,primary MM cells apoptosis,CD138+ primary MM cells,more than 70%
same,effect of IL6 addition on compound A induced MM cell apoptosis,[1],did not affect
same,cytotoxic effect of low dose alone,[2],only limited cytotoxic effect
